Assays:
[1] = biological target: Recombinant purified human BTK (Homo sapiens (Human), UniProt Q06187); assay: BTK enzyme inhibitory activity, ADP Glo kinase assay (Promega V9071); type: biochemical; settings: for inhibition at 0.1 µM: 100 nM compound; for IC50: ATP 10 uM, 1 hour 30° C.
Procedure: (§1) JAK3 and BTK kinase inhibitory activities were measured for the compounds prepared in the above Examples through in vitro analysis on the ADP Glow (Glo) platform.
(§2) Specifically, the inhibitory activities of JAK3 and BTK kinase were measured using a JAK3 kinase assay kit (Promega, V9441) and a BTK kinase assay kit (Promega, V9071) which were purchased from Promega. Recombinant purified human JAK3 and BTK were diluted with 1×kinase reaction buffer (JAK3: 40 mM Tris-Cl, pH 7.5, 20 mM MgCl2, 0.1 mg/mL BSA and 50 uM DTT/BTK: 40 mM Tris-Cl, pH 7.5, 20 mM MgCl2, 0.1 mg/mL BSA, 2 mM MnCl2 and 50 uM DTT) and added to a 96 well plate (JAK3: final concentration of 4 ng per reaction/BTK: final concentration of 8 ng per reaction). The compounds were treated so as to be finally a 1% DMSO aqueous solution, and a substrate cocktail containing ATP (JAK3: final concentration of 5 uM/BTK: final concentration of 10 uM) and 0.2 μg/μL of Poly(Glu4, Tyr1) peptide (JAK3 and BTK final concentration) in the total […] reactants was added to a 96-well plate to initiate enzymatic reaction. After incubation (30° C.) for 1 hour, equivalent volume ([…] per reaction) of ADP Glo was added and incubated (30° C.) for 40 minutes at room temperature. Then, a kinase detection reagent ([…] per reaction) was added and incubated (30° C.) for 30 minutes at room temperature. The kinase activity was measured by chemiluminescence according to the instructions of ADP Glo kinase assay kit, and the inhibitory activity of the compounds according to the present invention was calculated. For the analysis of the results of each compound, Microsoft Excel was used, and IC50 values were calculated by SigmaPlot software.

[2] = biological target: Recombinant purified human JAK3 (Homo sapiens (Human), UniProt P52333); assay: JAK3 enzyme inhibitory activity, ADP Glo kinase assay (Promega V9441); type: biochemical; settings: ATP 5 uM, 1 hour 30° C.
Sequence of Recombinant purified human JAK3 (P52333 whole entry): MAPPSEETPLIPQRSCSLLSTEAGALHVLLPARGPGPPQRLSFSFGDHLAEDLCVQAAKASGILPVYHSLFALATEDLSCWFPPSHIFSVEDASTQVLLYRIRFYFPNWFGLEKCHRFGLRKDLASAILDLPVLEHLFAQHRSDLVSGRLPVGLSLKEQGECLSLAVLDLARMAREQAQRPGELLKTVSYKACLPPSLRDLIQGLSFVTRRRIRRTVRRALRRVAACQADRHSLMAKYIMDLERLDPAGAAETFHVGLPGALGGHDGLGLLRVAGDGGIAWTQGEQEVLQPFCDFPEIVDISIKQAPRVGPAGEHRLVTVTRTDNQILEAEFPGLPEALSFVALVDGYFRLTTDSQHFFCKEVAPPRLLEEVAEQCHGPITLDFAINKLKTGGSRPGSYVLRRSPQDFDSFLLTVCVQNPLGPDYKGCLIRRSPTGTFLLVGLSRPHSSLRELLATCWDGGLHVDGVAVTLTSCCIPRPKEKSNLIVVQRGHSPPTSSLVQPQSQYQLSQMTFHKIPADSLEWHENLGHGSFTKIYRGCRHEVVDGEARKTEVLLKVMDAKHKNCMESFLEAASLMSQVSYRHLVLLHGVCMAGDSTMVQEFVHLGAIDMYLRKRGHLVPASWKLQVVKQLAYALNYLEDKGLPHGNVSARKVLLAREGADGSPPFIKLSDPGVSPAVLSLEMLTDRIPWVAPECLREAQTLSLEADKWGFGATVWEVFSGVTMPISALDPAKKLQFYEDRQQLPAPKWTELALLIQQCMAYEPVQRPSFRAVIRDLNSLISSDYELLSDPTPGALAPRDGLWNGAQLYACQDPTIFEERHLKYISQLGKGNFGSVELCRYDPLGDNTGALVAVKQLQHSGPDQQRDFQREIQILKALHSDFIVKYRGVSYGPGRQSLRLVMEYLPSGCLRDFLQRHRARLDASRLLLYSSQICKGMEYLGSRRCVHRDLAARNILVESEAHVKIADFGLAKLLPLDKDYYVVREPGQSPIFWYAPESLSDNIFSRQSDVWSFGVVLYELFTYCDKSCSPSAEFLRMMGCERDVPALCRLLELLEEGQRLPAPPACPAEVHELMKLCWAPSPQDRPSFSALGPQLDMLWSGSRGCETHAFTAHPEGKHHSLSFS
Procedure: as §1, §2

Sequence of Recombinant purified human BTK (Q06187 whole entry): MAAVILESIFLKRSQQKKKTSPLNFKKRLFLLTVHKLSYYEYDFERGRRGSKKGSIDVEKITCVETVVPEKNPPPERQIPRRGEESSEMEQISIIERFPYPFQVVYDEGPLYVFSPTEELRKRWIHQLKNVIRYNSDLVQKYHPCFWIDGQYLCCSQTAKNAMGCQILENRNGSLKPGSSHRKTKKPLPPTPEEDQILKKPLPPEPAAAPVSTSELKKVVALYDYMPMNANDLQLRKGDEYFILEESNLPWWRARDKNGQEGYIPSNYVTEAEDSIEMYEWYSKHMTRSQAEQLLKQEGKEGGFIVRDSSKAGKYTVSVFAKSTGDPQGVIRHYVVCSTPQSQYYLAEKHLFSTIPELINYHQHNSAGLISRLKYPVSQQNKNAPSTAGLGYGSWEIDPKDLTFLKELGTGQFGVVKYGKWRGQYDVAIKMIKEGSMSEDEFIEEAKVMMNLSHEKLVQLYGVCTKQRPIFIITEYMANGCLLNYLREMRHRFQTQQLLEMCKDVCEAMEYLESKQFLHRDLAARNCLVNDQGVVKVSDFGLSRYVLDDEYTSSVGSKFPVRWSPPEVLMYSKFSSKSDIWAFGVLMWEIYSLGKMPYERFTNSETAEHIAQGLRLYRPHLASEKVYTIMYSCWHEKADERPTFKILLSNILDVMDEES

| SMILES | inhibition at 0.1 µM [1] | IC50 [2] | IC50 [1] |
| --- | --- | --- | --- |
| C=CC(=O)N1CC[C@@H](C)[C@@H](N(C)c2nc(Nc3ccc(N4CCN(C)CC4)cc3)nc3[nH]ccc23)C1 [Example 27, 1-((3R,4R)-4-methyl-3-(methyl(2-(4-(4-methylpiperazin-1-yl)phenylamino)-7H-pyrrolo[2,3-d]pyrimidin-4-yl)amino)piperidin-1-yl)prop-2-en-1-one] | 48% |  |  |
| C[C@@H]1CCN(C(=O)CC#N)C[C@@H]1N(C)c1nc(Nc2ccc(N3CCN(C)CC3)cc2)nc2[nH]ccc12 [Example 28, 3-((3R,4R)-4-methyl-3-(methyl(2-(4-(4-methylpiperazin-1-yl)phenylamino)-7H-pyrrolo[2,3-d]pyrimidin-4-yl)amino)piperidin-1-yl)-3-oxopropanenitrile] | 3.3% |  |  |
| C=CC(=O)NC1CCCC(Nc2nc(Nc3ccc(N4CCN(C)CC4)cc3)nc3[nH]ccc23)C1 (stereo not shown) [Example 29, N-(3-(2-(4-(4-methylpiperazin-1-yl)phenylamino)-7H-pyrrolo[2,3-d]pyrimidin-4-ylamino)cyclohexyl)acrylamide] | 47.1% |  |  |
| C=CC(=O)N1CCC[C@@H](Nc2nc(Nc3cnn(CC)c3)nc3[nH]nc(Cl)c23)C1 [Example 46, (R)-1-(3-(3-chloro-6-(1-ethyl-1H-pyrazol-4-ylamino)-1H-pyrazolo[3,4-d]pyrimidin-4-ylamino)piperidin-1-yl)prop-2-en-1-one] |  | 0.6 nM | 2 nM |
| C=CC(=O)N1CC[C@@H](C)[C@@H](Nc2nc(Nc3cnn(CC)c3)nc3[nH]ccc23)C1 [Example 107, 1-((3R,4R)-3-((2-((1-ethyl-1H-pyrazol-4-yl)amino)-7H-pyrrolo[2,3-d]pyrimidin-4-yl)amino)-4-methylpiperidin-1-yl)prop-2-en-1-one] |  | 3.7 nM | 7.8 nM |
| C=CC(=O)N1CCC[C@@H](Sc2nc(Nc3cnn(CC)c3)nc3[nH]cc(Cl)c23)C1 [Example 109, (R)-1-(3-((5-chloro-2-((1-ethyl-1H-pyrazol-4-yl)amino)-7H-pyrrolo[2,3-d]pyrimidin-4-yl)thio)piperidin-1-yl)prop-2-en-1-one] |  | 0.3 nM | 2 nM |
| C=CC(=O)N1CCC[C@@H](Nc2nc(Nc3cnoc3)nc3[nH]nc(SC)c23)C1 [Example 130, (R)-1-(3-((6-(isoxazol-4-ylamino)-3-(methylthio)-1H-pyrazolo[3,4-d]pyrimidin-4-yl)amino)piperidin-1-yl)prop-2-en-1-one] |  | 9 nM | 1.1 nM |
| CC#CC(=O)N1CCC[C@@H](Nc2nc(Nc3ccc(N4CCN(C)CC4)cc3)nc3[nH]cc(Cl)c23)C1 [Example 143, (R)-1-(3-((5-chloro-2-((4-(4-methylpiperazin-1-yl)phenyl)amino)-7H-pyrrolo[2,3-d]pyrimidin-4-yl)amino)piperidin-1-yl)but-2-yn-1-one] |  | 19.3 nM | 165 nM |
